Results published in patent US20110015135A1, “Antitumoral Treatments” (Pharma Mar S.A., priority 2008, published 2011).

Experiments:
A549 cell line = test: cells; format: cell-based, human; settings: 72 hours of drug exposure
Procedure: (§1) a. […] Experiments were performed in triplicate.

DV90 cell line = test: cells; format: cell-based, human
Procedure: as §1

HOP62 cell line = test: cells; format: cell-based, human
Procedure: as §1

MCF7 cell line = test: cells
Procedure: (§2) Experiments were performed in triplicate.
(§3) a. In the first set of assays, ICso values were determined for each drug after 72 hours of drug exposure in each of the tumor cell lines.

MDA-MB-231 cell line = test: cells
Procedure: as §2, §3

MDA-MB-435 cell line = test: cells
Procedure: as §2, §3

DLD1 cell line = test: cells
Procedure: as §2

HT29 cell line = test: cells
Procedure: as §2

mouse leukemia (P388) = settings: reported in EP 610.078; cited from earlier work
[1] = test system: non-small cell lung (A549); settings: reported in EP 610.078; cited from earlier work
colon (HT-29) = settings: reported in EP 610.078; cited from earlier work
[2] = MCF7, 72 hours of drug exposure
[3] = MDA-MB-231, 72 hours of drug exposure
[4] = MDA-MB-435, 72 hours of drug exposure
[5] = DLD1, 72 hours of drug exposure
[6] = HT29, 72 hours of drug exposure

Compound | IC50 (A549 cell line) | IC50 (DV90 cell line; 72 hours of drug exposure) | IC50 (HOP62 cell line; 72 hours of drug exposure) | IC50 (MCF7 cell line; [2]) | IC50 (MDA-MB-231 cell line; [3]) | IC50 (MDA-MB-435 cell line; [4]) | IC50 (DLD1 cell line; [5]) | IC50 (HT29 cell line; [6]) | in vitro activity (mouse leukemia (P388)) | in vitro activity [1] | in vitro activity (colon (HT-29)) | IC50 (A549 cell line; Homo sapiens) | IC50 (DV90 cell line; Homo sapiens, DV-90, 72 hours of drug exposure) | IC50 (HOP62 cell line; Homo sapiens, HOP-62, 72 hours of drug exposure) | IC50 (MCF7 cell line; Homo sapiens, MCF7, 72 h) | IC50 (MDA-MB-231 cell line; Homo sapiens, MDA-MB-231, 72 h) | IC50 (MDA-MB-435 cell line; Homo sapiens, MDA-MB-435, 72 h) | IC50 (DLD1 cell line; Homo sapiens, DLD-1, 72 h) | IC50 (HT29 cell line; Homo sapiens, HT-29, 72 h)
Nc1ccn([C@@H]2O[C@H](CO)[C@@H](O)C2(F)F)c(=O)n1 [Gemcitabine] | 0.004 µM | 0.4 µM | 0.75 µM | 0.9 µM | 1 µM | 0.04 µM | 2 µM | 0.55 µM | – | – | – | – | – | – | – | – | – | – | –
N.N.[Cl][Pt][Cl] [Cisplatin] | 8.25 µM | 16.5 µM | 8.25 µM | 16.5 µM | 8.25 µM | 2.64 µM | 24.8 µM | 6.6 µM | – | – | – | – | – | – | – | – | – | – | –
Kahalalide F | – | – | – | – | – | – | – | – | micromolar activity | micromolar activity | micromolar activity | – | – | – | – | – | – | – | –
C/C=C1\NC(=O)[C@H](Cc2ccccc2)NC(=O)[C@@H](C(C)C)NC(=O)[C@@H]([C@@H](C)CC)NC(=O)[C@H](NC(=O)[C@H](NC(=O)[C@H](CCCN)NC(=O)[C@H]2CCCN2C(=O)[C@H](NC(=O)[C@@H](NC(=O)[C@@H](NC(=O)[C@H](NC(=O)CC[C@@H](C)CC)C(C)C)[C@@H](C)O)C(C)C)C(C)C)[C@@H](C)CC)[C@@H](C)OC(=O)[C@H](C(C)C)NC1=O [PM02734, (4S)-MeHex-D-Val-L-Thr-L-Val-D-Val-D-Pro-L-Orn-D-allo-Ile-cyclo(D-allo-Thr-D-allo-Ile-D-Val-L-Phe-Z-Dhb-L-Val)] | 0.2 µM | 0.3 µM | 4 µM | 0.6 µM | 6.5 µM | 0.5 µM | 0.35 µM | 0.55 µM | – | – | – | – | – | – | – | – | – | – | –
CC(=O)O[C@H]1C(=O)[C@@]2(C)[C@H]([C@H](OC(=O)c3ccccc3)[C@]3(O)C[C@H](OC(=O)[C@H](O)[C@@H](NC(=O)c4ccccc4)c4ccccc4)C(C)=C1C3(C)C)[C@]1(OC(C)=O)CO[C@@H]1C[C@@H]2O [Paclitaxel] | – | – | – | – | – | – | – | – | – | – | – | 0.007 µM | 0.03 µM | 0.04 µM | 0.0075 µM | 0.025 µM | 0.025 µM | 0.04 µM | 0.01 µM
